Activity calls are given as the source filed them. No cut-off for these calls is given here.
Key:
Mus musculus [1] = test: Antiinflammatory activity against APAP-induced C57BL/6J mouse liver injury model assessed as reduction in necrosis at 30 mg/kg, po preincubated for 1 hr followed by APAP stimulation and measured after 12 hrs by H and E staining based analysis; type: functional, organism-based
Mus musculus [2] = test: Antiinflammatory activity against LPS-induced C57BL/6J mouse model assessed as reduction in Cxcl2 expression at 30 mg/kg, po preincubated for 1 hr followed by LPS stimulation and measured after 8 hrs by qPCR analysis; type: functional, organism-based; conditions: time 9.0 hrs
Mus musculus [3] = test: Antiinflammatory activity against LPS-induced C57BL/6J mouse model assessed as reduction in Ccl2 expression at 30 mg/kg, po preincubated for 1 hr followed by LPS stimulation and measured after 8 hrs by qPCR analysis; type: functional, organism-based; conditions: time 9.0 hrs
[4] = Cytotoxicity against mouse TSEC cells at up to 200 uM measured after 4 hrs by XTT assay; type: toxicity, cell-based
Mus musculus [5] = test: Antiinflammatory activity against APAP-induced C57BL/6J mouse liver injury model assessed as reduction in Ccl2 expression at 30 mg/kg, po preincubated for 1 hr followed by APAP stimulation and measured after 8 hrs by qPCR analysis; type: functional, organism-based; conditions: time 9.0 hrs
Mus musculus [6] = test: Antiinflammatory activity against APAP-induced C57BL/6J mouse liver injury model assessed as reduction in Ly6G expression at 30 mg/kg, po preincubated for 1 hr followed by APAP stimulation and measured after 8 hrs by qPCR analysis; type: functional, organism-based; conditions: time 9.0 hrs
[7] = target: T1, Bromodomain-containing protein 4 (Homo sapiens, UniProt O60885); test: Induction of stabilization of BRD4-BD1 in human HEK293T cells at 0.5 to 5 uM incubated for 2 hrs by CESTA analysis; type: cell-based; conditions: dose 0.5-5 µM
Mus musculus [8] = test: Antiinflammatory activity against LPS-induced C57BL/6J mouse model assessed as reduction in Cxcl1 expression at 30 mg/kg, po preincubated for 1 hr followed by LPS stimulation and measured after 8 hrs by qPCR analysis; type: functional, organism-based; conditions: time 9.0 hrs
[9] = Toxicity in mouse Megakaryocyte cells assessed as reduction in thrombocytopenia risk by CFU-MK Assay; type: cell-based
Mus musculus [10] = test: Antiinflammatory activity against APAP-induced C57BL/6J mouse liver injury model assessed as reduction in Cxcl2 expression at 30 mg/kg, po preincubated for 1 hr followed by APAP stimulation and measured after 8 hrs by qPCR analysis; type: functional, organism-based; conditions: time 9.0 hrs
Mus musculus [11] = test: Antiinflammatory activity against APAP-induced C57BL/6J mouse liver injury model assessed as reduction in Cxcl1 expression at 30 mg/kg, po preincubated for 1 hr followed by APAP stimulation and measured after 8 hrs by qPCR analysis; type: functional, organism-based; conditions: time 9.0 hrs
Mus musculus [12] = test: Antiinflammatory activity against LPS-induced C57BL/6J mouse model assessed as reduction in goblet cell in small intestine at 30 mg/kg, po preincubated for 1 hr followed by LPS stimulation and measured after 8 days by alcian blue staining based analysis; type: functional, organism-based; conditions: time 9.0 hrs
TSEC [13] = test: Antiinflammatory activity against LPS induced mouse TSEC cells assessed as inhibition of CCL2 expression at 0.3 to 5 uM preincubated for 1 hr followed by LPS stimulation and measured after 4 hrs by qPCR analysis; type: functional, cell-based; conditions: dose 0.3-5 µM, time 5.0 hrs
[14] = AUC in male C57BL6 mouse liver at 10 mg/kg, ip measured up to 24 hrs by LC-MS/MS analysis; type: ADME, organism-based; conditions: in vivo
[15] = Cmax in male C57BL6 mouse plasma at 10 mg/kg, ip measured up to 24 hrs by LC-MS/MS analysis; type: ADME, organism-based
[16] = Half life in male C57BL6 mouse liver at 10 mg/kg, ip measured up to 24 hrs by LC-MS/MS analysis; type: ADME, organism-based; conditions: for half-life: male, C57BL6, mouse, liver
TSEC [17] = test: Antiinflammatory activity against LPS induced mouse TSEC cells assessed as inhibition of CXCL1 expression at 0.3 to 5 uM preincubated for 1 hr followed by LPS stimulation and measured after 4 hrs by qPCR analysis; type: functional, cell-based; conditions: dose 0.3-5 µM, time 5.0 hrs
[18] = AUC in male C57BL6 mouse plasma at 10 mg/kg, ip measured up to 24 hrs by LC-MS/MS analysis; type: ADME, organism-based; conditions: for AUC at 24 h: male, C57BL6, mouse, plasma
[19] = Cytotoxicity against mouse TSEC cells at 10 uM measured after 4 hrs by XTT assay; type: toxicity, cell-based
[20] = Metabolic stability in mouse liver microsomes assessed as half life […] measured after 60 mins in presence of NADPH by LC-MS/MS analysis; type: ADME, Microsome
[21] = Apparent oral clearance in male C57BL6 mouse plasma at 10 mg/kg, ip measured up to 24 hrs by LC-MS/MS analysis; type: ADME, organism-based
[22] = Cmax in male C57BL6 mouse liver at 10 mg/kg, ip measured up to 24 hrs by LC-MS/MS analysis; type: ADME, organism-based; conditions: in vivo
[23] = target: Bromodomain-containing protein 2 (Homo sapiens, UniProt P25440); test: Inhibition of his9-tagged BRD2-BD2 (unknown origin) preincubated for 30 mins followed by addition of biotinylated peptide and measured after 30 mins by Alphascreen assay
[24] = target: T1, Bromodomain-containing protein 4; test: Inhibition of human his tagged BRD4-BD2 using Histone H4 peptide (1-21) K5/8/12/16Ac as substrate preincubated for 30 mins followed by addition of biotinylated peptide and measured after 30 mins by Alphascreen assay
[25] = target: T1, Bromodomain-containing protein 4; test: Inhibition of N-luc fused BRD4-BD1 in HEK293T cells using NanoGlo substrate as substrate incubated for 2 hrs by NanoBRET assay; type: cell-based
[26] = target: T1, Bromodomain-containing protein 4; test: Binding affinity to N-luc fused BRD4-BD1 in HEK293T cells assessed as apparent inhibition constant using NanoGlo substrate as substrate incubated for 2 hrs by NanoBRET assay; type: cell-based; conditions: read-out: Ki(app)
[27] = target: T1, Bromodomain-containing protein 4; test: Inhibition of N-luc fused BRD4-BD1 in HEK293T cells using NanoGlo substrate as substrate at 10 uM incubated for 2 hrs by NanoBRET assay relative to control; type: cell-based
[28] = target: T1, Bromodomain-containing protein 4; test: Inhibition of his9-tagged BRD4-BD1 (unknown origin) preincubated for 30 mins followed by addition of biotinylated peptide and measured after 30 mins by Alphascreen assay
[29] = mouse, in vivo, ip, 10 mg/kg, 24 h
[30] = mouse, megakaryocyte cells (CFU-MK colony formation)
[31] = male, C57BL6, mouse, plasma, read-out: CL/F (converted)

Bromodomain-containing protein 2, sequence (P25440 whole entry): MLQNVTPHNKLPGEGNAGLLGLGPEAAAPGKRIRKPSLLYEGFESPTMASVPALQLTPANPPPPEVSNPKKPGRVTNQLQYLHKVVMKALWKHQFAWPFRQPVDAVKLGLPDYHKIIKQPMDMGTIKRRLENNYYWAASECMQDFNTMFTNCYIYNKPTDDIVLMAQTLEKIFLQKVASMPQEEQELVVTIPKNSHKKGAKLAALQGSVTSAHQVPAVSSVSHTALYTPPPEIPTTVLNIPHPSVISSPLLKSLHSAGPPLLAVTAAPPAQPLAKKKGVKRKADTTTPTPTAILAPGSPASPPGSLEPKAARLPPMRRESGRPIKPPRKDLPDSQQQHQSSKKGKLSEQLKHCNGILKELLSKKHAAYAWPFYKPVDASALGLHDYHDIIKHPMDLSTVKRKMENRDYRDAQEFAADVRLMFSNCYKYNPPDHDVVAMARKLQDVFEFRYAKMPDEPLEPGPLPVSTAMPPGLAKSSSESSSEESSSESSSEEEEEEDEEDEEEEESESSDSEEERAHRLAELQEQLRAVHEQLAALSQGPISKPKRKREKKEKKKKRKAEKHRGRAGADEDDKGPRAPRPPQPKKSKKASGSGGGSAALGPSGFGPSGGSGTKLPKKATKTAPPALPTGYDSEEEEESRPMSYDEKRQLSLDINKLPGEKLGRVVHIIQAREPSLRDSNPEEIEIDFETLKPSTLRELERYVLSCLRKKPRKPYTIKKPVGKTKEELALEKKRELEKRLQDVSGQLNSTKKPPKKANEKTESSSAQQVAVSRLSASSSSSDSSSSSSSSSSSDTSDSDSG

SMILES | Activity (Mus musculus [1]) | Activity (Mus musculus [2]) | Activity (Mus musculus [3]) | Activity [4] | Activity (Mus musculus [5]) | Activity (Mus musculus [6]) | Activity [7] | Activity (Mus musculus [8]) | EC50 ([9]; megakaryocyte) [nM] | Activity (Mus musculus [10]) | Activity (Mus musculus [11]) | Activity (Mus musculus [12]) | Activity (TSEC [13]) | AUC [14] [nmol·h/g] | Cmax [15] [nM] | Activity (TSEC [17]) | Cmax [22] [nmol/g] | IC50 [23] [µM] | further results
COc1cc2c(cc1-c1c(C)noc1C)ncc1[nH]c(=O)n([C@H](C)c3ccccn3)c12 | inactive | Active | Active | Non-toxic | inactive | Active | Active | Active | 1280 | Active | Active | Active |  |  |  |  |  |  | 
Cc1ccc(C(C)C)cc1Oc1nccc(-c2c(-c3ccc(C(F)(F)F)cc3)ncn2C2CCNCC2)n1 | Active | Active | Active |  | Active | Active |  | Active | 670 | Active | Active | Active | Active | 1402 | 1800 | Active | 137 |  | t1/2 [16, 29]: 6.8 h; AUC [18, 29]: 40.2 µM·h; Activity [19]: Toxic; half-life [20]: 207 min; CL/F [21, 29]: 418 mL/min/kg
CCNC(=O)c1cc2c(-c3cc(C(C)(C)O)ccc3Oc3c(C)cc(F)cc3C)cn(C)c(=O)c2[nH]1 [ABBV-744] |  |  |  |  |  |  |  |  |  |  |  |  |  |  |  |  |  |  | EC50 [9, 30]: 3 nM
O=C(Nc1ccc(C(F)(F)F)cc1)Nc1ccc(S(=O)(=O)N2CCC[C@H]2CN2CCOCC2)cc1 |  |  |  |  |  |  |  |  |  |  |  |  |  |  |  |  |  | > 50 | 
Cc1ccc(C(C)C)cc1Oc1nccc(-c2c(-c3ccc(C(F)(F)F)cc3)ncn2C2CCN(CCO)CC2)n1 | Active | Active; Compound Showed No Significant Reduction Compared To I-Bet151 And Compound 3(Dw34) | Active; Compound Showed No Significant Reduction Compared To I-Bet151 And Compound 3(Dw34) | Non-toxic | Active | inactive | inactive | Active; Compound Showed No Significant Reduction Compared To I-Bet151 And Compound 3(Dw34) | 1830 | inactive | Active |  | Active | 138 | 1050 | Active | 38.9 | > 10 | IC50 [24]: > 10 µM; EC50 [25]: 2450 nM; Ki [26]: 936 nM; half-life [16]: 204 min; AUC at 24 h [18]: 4.04 µM·h; inhibition [27]: 36%; half-life [20]: 77.5 min; CL/F [21, 31]: 65 mL/min/kg; IC50 [28]: 111 nM
CCS(=O)(=O)Nc1ccc(Oc2ccc(F)cc2F)c(-c2cn(C)c(=O)c3[nH]ccc23)c1 [MIVEBRESIB] |  |  |  |  |  |  |  |  |  |  |  |  |  |  |  |  |  |  | EC50 [9, 30]: 645 nM
Cc1cc(C)cc(Oc2cccc(-c3c(C)nnn3C3CCN(CCN(C)C)CC3)n2)c1 | Active | Active; Compound Showed No Significant Reduction Compared To I-Bet151 And Compound 3(Dw34) | Active; Compound Showed No Significant Reduction Compared To I-Bet151 And Compound 3(Dw34) | Non-toxic | Active | Active | inactive | Active; Compound Showed No Significant Reduction Compared To I-Bet151 And Compound 3(Dw34) | 90 | Active | Active | Active | Active | 2.65 | 430 | Active | 3.69 |  | half-life [16]: 138 min; AUC at 24 h [18]: 0.64 µM·h; CL/F [21, 31]: 470 mL/min/kg
CC(=O)Nc1c(F)cc(C(=O)N[C@H]2CC[C@H](O)CC2)cc1O[C@@H](C)c1ccccc1 [GSK046] | Active |  |  | Non-toxic | inactive |  |  |  | 380 | inactive |  |  | Active; Compound Is Less Effective Than I-Bet151 And Compound 3 |  |  |  |  | 0.049 | 
